In publication PMC11975047, “Antiproliferative effects, mechanism of action and tumor reduction studies in a lung cancer xenograft mouse model of an organometallic gold(I) alkynyl complex” (RSC Medicinal Chemistry, 2025):

Columns and labels:
[1] = molecular target: T1, thioredoxin reductase (TrxR), rat liver (Rattus norvegicus, UniProt O89049); test: DTNB reduction assay with purified rat liver TrxR, reference inhibitor
T1 construct: gene Txnrd1

[2] = molecular target: T1, thioredoxin reductase (TrxR), rat liver; test: DTNB reduction assay with purified rat liver TrxR, […] min preincubation, […] nm

T1 sequence (O89049 whole entry): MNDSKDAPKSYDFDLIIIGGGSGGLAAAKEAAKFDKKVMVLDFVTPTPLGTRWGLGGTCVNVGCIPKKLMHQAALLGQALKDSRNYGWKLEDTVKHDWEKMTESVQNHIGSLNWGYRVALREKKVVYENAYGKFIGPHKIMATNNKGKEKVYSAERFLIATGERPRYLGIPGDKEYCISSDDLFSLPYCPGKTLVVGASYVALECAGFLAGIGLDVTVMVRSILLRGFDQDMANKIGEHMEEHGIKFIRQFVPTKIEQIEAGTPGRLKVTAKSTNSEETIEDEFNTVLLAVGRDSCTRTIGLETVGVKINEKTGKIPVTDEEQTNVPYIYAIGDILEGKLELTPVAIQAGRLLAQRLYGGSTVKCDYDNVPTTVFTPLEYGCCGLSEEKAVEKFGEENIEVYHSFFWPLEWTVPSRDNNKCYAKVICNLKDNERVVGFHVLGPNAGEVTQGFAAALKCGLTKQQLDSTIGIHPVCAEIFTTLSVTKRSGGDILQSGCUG

SMILES | IC50 [1] [nM] | IC50 [2] [nM]
CC[P](CC)(CC)=[Au][S][C@@H]1O[C@H](COC(C)=O)[C@@H](OC(C)=O)[C@H](OC(C)=O)[C@H]1OC(C)=O [AF, Auranofin] | 30 | –
CC[P+](CC)(CC)[Au-][C]#Cc1ccc(OC)cc1 [compound 1, complex 1] | – | 50 ± 10
